Source: PMC4766710 (BMC Cancer, 2016)
Like-named read-outs stand apart in the source and are kept apart here. One block for each molecule: values may come before it.

Tests used:
[1] = in vivo, 75 mg
[2] = tested on: advanced biliary tract cancer; experiment: ABC-04 phase Ib trial: objective response (RECIST v1.1), PFS, deaths; assay type: in vivo, patients; conditions: 75 mg bd + CisGem
Experimental: Patients were assessed prior to starting treatment and at regular intervals throughout treatment. […] All AEs occurring between the date of signing consent and 30 days after the last dose of any trial treatment were recorded. AEs were graded according to CTCAE v 4.03. Blood biochemistry and a full blood count with differential were carried out at the same time points as the physical examinations. […] In addition, prior to registration, an electrocardiogram and echocardiogram, and an ophthalmological examination were required. Disease status was assessed by computed tomography (CT) scan, with or without a liver magnetic resonance (MR) scan, prior to registration, after cycles 4 and 8 and then subsequently every 12 weeks until disease progression. Patients with measurable disease at baseline were assessed for objective response according to RECIST v1.1 [10]. For patients with non-measurable disease, objective response was not assessed and progressive disease was documented by the appearance of new lesions or by symptomatic deterioration.
Tumour responses were assessed according to RECIST version 1.1. The best response across all time points has been reported. For PFS and OS, the time to progression or death was measured from the date of registration. PFS and OS were estimated for the population by the Kaplan-Meier method.

[3] = ABC-04 phase Ib trial: dose limiting toxicity, adverse events, compliance; assay type: in vivo, patients
Experimental: Four dose levels were included in the protocol for potential evaluation; 75 mg bd, 50 mg bd, 75 mg once daily (od) and 50 mg od. The first dose level evaluated was 75 mg bd. Patients were recruited in cohorts of three. The number of patients experiencing a DLT during the first cycle of treatment in each cohort was used to decide the dose level at which to recruit the next cohort. If no patients experienced a DLT, then that dose level was the recommended dose. If one patient experienced a DLT, the cohort was to be expanded to six patients. If > 2 patients experienced DLT, then subsequent patients were to be entered into the next lower dose level. […]
Patients were assessed prior to starting treatment and at regular intervals throughout treatment. […] All AEs occurring between the date of signing consent and 30 days after the last dose of any trial treatment were recorded. […] Disease status was assessed by computed tomography (CT) scan, with or without a liver magnetic resonance (MR) scan, prior to registration, after cycles 4 and 8 and then subsequently every 12 weeks until disease progression. Patients with measurable disease at baseline were assessed for objective response according to RECIST v1.1 [10]. For patients with non-measurable disease, objective response was not assessed and progressive disease was documented by the appearance of new lesions or by symptomatic deterioration. […]

[4] = clinical; conditions: human, in vivo, 75 mg
[5] = tested on: ABC; conditions: monotherapy 100 mg bd, older formulation; 29 patients with ABC; cited from earlier work
[6] = RECIST v1.1, listed as selumetinib

AUC(0-t) ([1]; human): 347.26 ng·h/mL
Cmax ([1]; human): 77.16 ng/mL
Tmax ([1]; human): 2.00 h
decrease of AUC(0-t) in the presence of CisGem ([1]; human): 40%
decrease of AUC(0-∞) in the presence of CisGem ([1]; human): 40%
decrease of Cmax in the presence of CisGem ([1]; human): 40%
AUC(0-∞) [1]: 452.88 ng·h/mL
Structure (SMILES): O=C(NOCCO)c1cc2nc[nH]c2c(F)c1Nc1ccc(Br)cc1Cl [N-desmethyl selumetinib]

Structure (SMILES): Cn1cnc2c(F)c(Nc3ccc(Br)cc3Cl)c(C(=O)NOCCO)cc21 [Selumetinib]
Median time from documented best objective response until progression or death [2]: 5.9 months
median time from documented best objective response until progression or death, best response SD [2]: 3.1 months
median PFS ([2]; IQR 5.2 to 13.7): 6.4 months
PFS rate at 6 months ([2]; Kaplan-Meier): 67%
PFS rate at 12 months ([2]; Kaplan-Meier): 33%
Best objective response: Complete response ([2]; RECIST v1.1): 1 N
Best objective response: Partial response ([2]; RECIST v1.1): 1 N
Best objective response: Stable disease ([2]; RECIST v1.1): 6 N
Best objective response: Partial response [2, 6]: 3 N
Best objective response: Stable disease [2, 6]: 5 N
Best objective response: Not evaluable ([2]; RECIST v1.1, total 13): 5 N
patients who had died ([2]; at the time of the final analysis): 7 patients
deaths considered related to protocol treatment ([3]; 75 mg bd + CisGem): None
recommended dose of selumetinib when combined with CisGem ([3]; dose de-escalation scheme, patients with ABC): 75 mg bd
AUC(0-inf) [4]: 5650 ng·h/mL
Tmax [4]: 1.55 h
Cmax ([1]; human): 1331.33 ng/mL
response rate [5]: 12%
